The target of assay [1] is T1, human CYP11B2 (Homo sapiens, UniProt P19099).
T1 construct: expressed in transfected cells; host or cells: hamster V79MZh cells
T1 sequence (P19099 25-503): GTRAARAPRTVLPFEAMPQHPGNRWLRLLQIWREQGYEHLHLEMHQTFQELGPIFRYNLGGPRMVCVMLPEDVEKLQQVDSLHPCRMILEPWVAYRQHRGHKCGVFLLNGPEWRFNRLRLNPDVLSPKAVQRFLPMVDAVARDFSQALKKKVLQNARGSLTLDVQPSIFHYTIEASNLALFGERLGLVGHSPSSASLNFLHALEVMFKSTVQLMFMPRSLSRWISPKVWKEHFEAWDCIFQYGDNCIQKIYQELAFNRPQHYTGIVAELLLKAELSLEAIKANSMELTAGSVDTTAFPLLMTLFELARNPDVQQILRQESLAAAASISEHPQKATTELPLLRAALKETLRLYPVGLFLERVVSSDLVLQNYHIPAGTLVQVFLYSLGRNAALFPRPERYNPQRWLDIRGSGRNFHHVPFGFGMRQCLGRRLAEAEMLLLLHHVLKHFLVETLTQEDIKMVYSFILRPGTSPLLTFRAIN
Briefly: CYP11B2 inhibition assay in V79MZh cells. The format is cell-based. The settings on record: human CYP11B2 expressed in hamster V79MZh cells; mean of at least three experiments. As for the experimental part: (§1) The selected potential inhibitors were dissolved in DMSO at a concentration of 10 mM to generate stock solutions. Various aliquots were then made from fresh stock solutions and each aliquot was tested only once.
(§2) The selected hits were evaluated for their inhibition of human CYP11B1 and CYP11B2 enzymes expressed in hamster V79MZh cells. Approximately […] V79MZh cells were cultured in 24-well cell culture plates for 24 h. The area of each well was 1.9 cm^2. The cells were exposed to various concentrations of inhibitor solutions. The reactions were started by incubating the cells with [^3H]11-deoxycorticosterone. The incubation time for CYP11B1 cells was 15–60 and 50–120 min for CYP11B2 cells. The reactions were stopped by extracting the supernatant with cold ethyl acetate at 4°C. Samples were mixed (10 min), and centrifuged (12,500 rpm). The organic (upper) layer was separated into fresh Eppendorf tubes and dried. The steroids were re-dissolved in methanol-water (65–35%) and were analyzed by radio-HPLC (Denner et al., [1995a]; Ehmer et al., [2002]).

Assay [2] has as its target T2, human CYP11B1 (Homo sapiens, UniProt P15538).
T2 construct: expressed in transfected cells; host or cells: hamster V79MZh cells
T2 sequence (P15538 25-503): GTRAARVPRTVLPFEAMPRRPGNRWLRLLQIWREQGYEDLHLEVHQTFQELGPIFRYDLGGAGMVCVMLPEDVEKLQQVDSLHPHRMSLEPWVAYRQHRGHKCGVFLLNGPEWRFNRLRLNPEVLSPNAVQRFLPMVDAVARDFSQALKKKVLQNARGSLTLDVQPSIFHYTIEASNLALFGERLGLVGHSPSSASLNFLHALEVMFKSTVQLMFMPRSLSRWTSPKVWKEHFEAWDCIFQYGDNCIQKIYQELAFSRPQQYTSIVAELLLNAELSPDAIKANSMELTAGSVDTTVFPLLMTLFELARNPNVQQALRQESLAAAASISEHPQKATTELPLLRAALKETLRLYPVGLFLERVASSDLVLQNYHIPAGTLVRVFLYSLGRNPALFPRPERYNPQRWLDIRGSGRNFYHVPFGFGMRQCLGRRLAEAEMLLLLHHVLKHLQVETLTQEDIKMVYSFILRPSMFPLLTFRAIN
Briefly: CYP11B1 inhibition assay in V79MZh cells. The format is cell-based. The procedure:
as §1, §2

Assay [3] relates to CYP11B2. The following applies: reported activity, supplementary Table 1, read-out: CYP11B2 IC50, cited from earlier work.
The test system of assay [4] is CYP11B1. The settings on record: reported activity, supplementary Table 1, read-out: CYP11B1 IC50, cited from earlier work.
Where [5] appears, read: ref Pinto-Bazurco Mendieta et al., 2013.

One may read the IC50 as the point on the concentration scale where inhibition reaches its midpoint.

Where “and” joins values, the source holds several entries; their conditions need not be identical. Equal entries are not always repeated. Where two headings read alike, the source gives them in different places.

For the molecule `CN(C)C(c1ccccc1)c1nnnn1-c1ccc(Cl)cc1` (stereo not shown) [Compound 11], the IC50 is 15600 ± 8450 nM in assay [1]; 2500 nM and 2520 nM in assay [2] (human CYP11B1 expressed in hamster V79MZh cells, mean of at least three experiments). Besides, the “selectivity factor for CYP11B1 inhibition over CYP11B2” value in assay [2] (from IC50 values) was found to be 6.
For the molecule `COc1cncc(-c2ccc3c(c2)CCC(=O)N3C)c1` [CHEMBL457856], the IC50 is 0.2 nM in assay [3] (ref Lucas et al., 2008b) and 87 nM in assay [4] (ref Lucas et al., 2008b).
For `c1cncc(-c2ccc3c(c2)CCCC3)c1` [CHEMBL461457], the 50% inhibitory concentration (IC50) was 29 nM in assay [3] (ref Lucas et al., 2008b) and 1980 nM in assay [4] (ref Lucas et al., 2008b).
For `CC(c1cc2c3c(c1)CCN3C(=O)CC2)n1ccnc1` (stereo not shown) [CHEMBL2163636], the concentration for half-maximal inhibition (IC50) in assay [3] (ref Yin et al., 2012) is 15 nM; in assay [4] (ref Yin et al., 2012), 17 nM.
Regarding `N#Cc1ccc(Cn2cncc2-c2ccccc2F)cc1` [CHEMBL599603], the IC50 in assay [3] (ref Roumen et al., 2010) is 2.3 nM; in assay [4] (ref Roumen et al., 2010), 20 nM.
As for `O=C1CCc2cc(-n3ccnc3)cc3c2N1CC3` [CHEMBL1765218], the IC50 in assay [3] (ref Lucas et al., 2011) is 89 nM; in assay [4] (ref Lucas et al., 2011) it was 2080 nM.
For the molecule `O=C1CCc2cc(C(c3ccc(F)cc3)c3cccnc3)cc3c2N1CC3` (stereo not shown) [CHEMBL2312972], the IC50 in assay [3] (ref Yin et al., 2013) is 587 nM; in assay [4] (ref Yin et al., 2013) it was 78 nM.
As for `COc1ccc2cc(-c3cccnc3)ccc2c1Cl` [CHEMBL197576], the IC50 in assay [3] (ref Voets et al., 2005) was 13 nM; in assay [4] (ref Voets et al., 2005), 2520 nM.
As for `CC(c1ccc(-c2cccc3ccccc23)nc1)n1ccnc1` (stereo not shown) [CHEMBL2417627], the IC50 is 273 nM in assay [3] (ref Emmerich et al., 2013) and 60 nM in assay [4] (ref Emmerich et al., 2013).
Consider `O=C1CCc2cc(-c3cncc(-c4cccc(OC(F)(F)F)c4)c3)cc3c2N1CC3` [CHEMBL1765230], for which the concentration for half-maximal inhibition (IC50) in assay [3] (ref Lucas et al., 2011) is 16 nM; in assay [4] (ref Lucas et al., 2011), 2060 nM.
Turning to `Oc1ccc2ccc(-c3cccnc3)c(Cl)c2c1` [CHEMBL2420674], the IC50 in assay [3] (setting [5]) is 26 nM; in assay [4] (setting [5]), 235 nM.
Take `Cc1ccncc1Cc1ccc(-c2ccccc2)nc1` [CHEMBL2417637]: the IC50 in assay [3] (ref Emmerich et al., 2013) is 19 nM; in assay [4] (ref Emmerich et al., 2013), 8 nM.
Regarding `c1ccc(-c2ncc(Cn3ccnc3)c3ccccc23)cc1` [CHEMBL2417632], the IC50 in assay [3] (ref Emmerich et al., 2013) is 302 nM; in assay [4] (ref Emmerich et al., 2013), 87 nM.
As for `N#Cc1ccc(Cn2cncc2CCCO)cc1` [CHEMBL598399], the IC50 in assay [3] (ref Roumen et al., 2010) is 13 nM; in assay [4] (ref Roumen et al., 2010), 48 nM.
With `N#Cc1ccc(Cn2cncc2CO)cc1` [CHEMBL599601], the concentration for half-maximal inhibition (IC50) in assay [3] (ref Roumen et al., 2010) was 29 nM; in assay [4] (ref Roumen et al., 2010) it was 285 nM.
On to `COc1ccc2ccc(-c3cncnc3)c(Cl)c2c1` [CHEMBL2420685], for which the half-maximal inhibitory concentration (IC50) in assay [3] (setting [5]) is 72 nM; in assay [4] (setting [5]), 12300 nM.
`O=C1CCc2cc(C(C3CC3)n3ccnc3)cc3c2N1CC3` (stereo not shown) [CHEMBL2163639]: the IC50 in assay [3] (ref Yin et al., 2012) was 24 nM; in assay [4] (ref Yin et al., 2012), 2.2 nM.
Regarding `COc1ccc2cc(-c3cnccc3C)ccc2c1` [CHEMBL500664], the IC50 is 0.8 nM in assay [3] (ref Heim et al., 2008) and 114 nM in assay [4] (ref Heim et al., 2008).
For the molecule `COc1ccc(-c2cncc(-c3cc4c5c(c3)CCN5C(=O)CC4)c2)cc1` [CHEMBL1765228], the IC50 in assay [3] (ref Lucas et al., 2011) is 1.4 nM; in assay [4] (ref Lucas et al., 2011), 21 nM.
On to `Oc1cncc(Cc2ccc(-c3ccccc3)nc2)c1` [CHEMBL2417615], for which the concentration for half-maximal inhibition (IC50) in assay [3] (ref Emmerich et al., 2013) is 836 nM; in assay [4] (ref Emmerich et al., 2013), 51 nM.
Turning to `CCN1C(=O)CCc2cc(-c3cccnc3)ccc21` [CHEMBL457425], the IC50 in assay [3] (ref Lucas et al., 2008b) was 22 nM; in assay [4] (ref Lucas et al., 2008b), 5180 nM.
In the case of `c1cn(Cc2ccc(-c3ccoc3)nc2)cn1` [CHEMBL2011435], the IC50 is 2830 nM in assay [3] (ref Hille et al., 2011a) and 76 nM in assay [4] (ref Hille et al., 2011a).
Consider `CCOc1ccc(Cn2ccnc2)c2c(=O)c3ccccc3oc12` [CHEMBL2333330], for which the IC50 in assay [3] (ref Gobbi et al., 2013) is 14.8 nM; in assay [4] (ref Gobbi et al., 2013), 25.4 nM.
With `Cc1ccccc1-c1cncn1Cc1ccc(C#N)cc1` [CHEMBL610513], the IC50 is 3.7 nM in assay [3] (ref Roumen et al., 2010) and 5.7 nM in assay [4] (ref Roumen et al., 2010).
Take `c1ccc(Cn2cncc2-c2ccccc2)cc1` [CHEMBL463582]: the IC50 in assay [3] (ref Roumen et al., 2010) was 11 nM; in assay [4] (ref Roumen et al., 2010), 4.8 nM.
As for `Oc1ccc2ccc(-c3cccnc3)c(Cl)c2c1F` [CHEMBL2420678], the values for the IC50 in assay [3] (setting [5]) and in assay [4] (setting [5]) were 25 nM and 224 nM, respectively.
Regarding `CN1C(=O)CCc2cc(-c3cccnc3)ccc21` [CHEMBL446083], the IC50 in assay [3] (ref Lucas et al., 2008b) was 2.6 nM; in assay [4] (ref Lucas et al., 2008b) it was 742 nM.
Turning to `COc1cc2ccccc2cc1-n1ccnc1` [CHEMBL194472], the IC50 is 19 nM in assay [3] (ref Voets et al., 2005) and 81 nM in assay [4] (ref Voets et al., 2005).
In the case of `COc1cccc2c1/C(=C/c1cccnc1)CC2` [CHEMBL175791], the IC50 in assay [3] (ref Ulmschneider et al., 2005a) was 27 nM; in assay [4] (ref Ulmschneider et al., 2005a) it was 955 nM.
For the molecule `O=C1CCc2cc(-c3cccnc3)c(OCc3ccccc3)cc2N1` [CHEMBL2165320], the IC50 in assay [3] (ref Hu et al., 2012) is 22 nM; in assay [4] (ref Hu et al., 2012), 44 nM.
Consider `O=C1CCc2cc(C(c3cccs3)n3ccnc3)cc3c2N1CC3` (stereo not shown) [CHEMBL2163651], for which the IC50 in assay [3] (ref Yin et al., 2012) was 18 nM; in assay [4] (ref Yin et al., 2012) it was 13 nM.
With `COc1ccc2ccc(-c3cccnc3)c(F)c2c1` [CHEMBL2420675], the IC50 is 17 nM in assay [3] (setting [5]) and 1610 nM in assay [4] (setting [5]).
For the molecule `O=c1c2ccccc2oc2c(I)ccc(Cn3ccnc3)c12` [CHEMBL2333327], the IC50 in assay [3] (ref Gobbi et al., 2013) was 23.5 nM; in assay [4] (ref Gobbi et al., 2013) it was 19.2 nM.
